Columns and labels:
Hela cell line = experiment: Cytotoxicity MTS assay, Hela cell line; assay type: cell-based; conditions: for OD490 value, Mean / OD490 value, Well 1 / OD490 value, Well 2 / OD490 value, Well 3: Hela cell line, MTS
Procedure: (§1) The positive compounds (IC50 < 100 μM) obtained from the primary Eg5 motor protein ATPase assay were tested for antiproliferative activity in vitro against Caco-2 cell line, Hela cell line, L929 cell line and T24 cell line by performing MTS assay. Cells were introduced into 96-well plates at a density of 1000 cells per well. After 24 h incubation, the cells were exposed with compounds at final concentrations ranging from 0.5 to 100 µM for 24 h. DMSO was used at a final concentration of 0.025% as blank control, monastrol was used as the positive control. Then 20 µL (CellTiter 96® AQueous One Solution Promega, Madison, WI, USA) reagent was added in each well. After 2 h at 37 °C in a 80% humidified, 5% CO2 atmosphere, the absorbance at 490 nm was recorded using a microplate reader (BIO-RAD iMark^TM). The results were obtained in three independent duplicate experiments. The primary data were shown in Supplementary Materials Tables S4–S7. The IC50 values for these compounds were calculated from a non-linear regression graph plotted between the percentage of cell viability and concentration with SPSS17.0 software.

L929 cell line = experiment: Cytotoxicity MTS assay, L929 cell line; assay type: cell-based; conditions: for OD490 values, Mean / OD490 values, Well 1 / OD490 values, Well 2 / OD490 values, Well 3: L929 cell line
Procedure: as §1

**Q.** Which results are given for `CCOC(=O)c1[nH]c(C2NC(=S)NC(C)=C2C(=O)OC)c(C(=O)OCC)c1C` (centres unmarked) [D12]?
**A.** OD490 value, Mean (Hela cell line; 0.5μM, first assay): 2.4447; OD490 value, Well 1 (Hela cell line; 0.5μM, first assay): 2.5235; OD490 value, Well 2 (Hela cell line; 0.5μM, first assay): 2.4821; OD490 value, Well 3 (Hela cell line; 0.5μM, first assay): 2.3285; OD490 value, Mean (Hela cell line; 0.5μM, second assay): 2.5426; OD490 value, Well 1 (Hela cell line; 0.5μM, second assay): 2.5366; OD490 value, Well 2 (Hela cell line; 0.5μM, second assay): 2.2547; OD490 value, Well 3 (Hela cell line; 0.5μM, second assay): 2.8365; OD490 value, Mean (Hela cell line; 0.5μM, third assay): 2.6167; OD490 value, Well 1 (Hela cell line; 0.5μM, third assay): 2.6535; OD490 value, Well 2 (Hela cell line; 0.5μM, third assay): 2.5478; OD490 value, Well 3 (Hela cell line; 0.5μM, third assay): 2.6489; OD490 value, Mean (Hela cell line; 1μM, first assay): 2.3871; OD490 value, Well 1 (Hela cell line; 1μM, first assay): 2.4815; OD490 value, Well 2 (Hela cell line; 1μM, first assay): 2.2707; OD490 value, Well 3 (Hela cell line; 1μM, first assay): 2.4090; OD490 value, Mean (Hela cell line; 1μM, second assay): 2.5625; OD490 value, Well 1 (Hela cell line; 1μM, second assay): 2.5302; OD490 value, Well 2 (Hela cell line; 1μM, second assay): 2.5698; OD490 value, Well 3 (Hela cell line; 1μM, second assay): 2.5874; OD490 value, Mean (Hela cell line; 1μM, third assay): 2.6475; OD490 value, Well 1 (Hela cell line; 1μM, third assay): 2.5896; OD490 value, Well 2 (Hela cell line; 1μM, third assay): 2.6985; OD490 value, Well 3 (Hela cell line; 1μM, third assay): 2.6543; OD490 value, Mean (Hela cell line; 10μM, first assay): 2.6552; OD490 value, Well 1 (Hela cell line; 10μM, first assay): 2.5708; OD490 value, Well 2 (Hela cell line; 10μM, first assay): 2.6029; OD490 value, Well 3 (Hela cell line; 10μM, first assay): 2.7920; OD490 value, Mean (Hela cell line; 10μM, second assay): 2.5779; OD490 value, Well 1 (Hela cell line; 10μM, second assay): 2.5898; OD490 value, Well 2 (Hela cell line; 10μM, second assay): 2.5741; OD490 value, Well 3 (Hela cell line; 10μM, second assay): 2.5698; OD490 value, Mean (Hela cell line; 10μM, third assay): 2.6011; OD490 value, Well 1 (Hela cell line; 10μM, third assay): 2.5898; OD490 value, Well 2 (Hela cell line; 10μM, third assay): 2.6635; OD490 value, Well 3 (Hela cell line; 10μM, third assay): 2.5501; OD490 value, Mean (Hela cell line; 25μM, first assay): 2.2305; OD490 value, Well 1 (Hela cell line; 25μM, first assay): 2.2367; OD490 value, Well 2 (Hela cell line; 25μM, first assay): 2.1978; OD490 value, Well 3 (Hela cell line; 25μM, first assay): 2.2571; OD490 value, Mean (Hela cell line; 25μM, second assay): 2.5197; OD490 value, Well 1 (Hela cell line; 25μM, second assay): 2.5698; OD490 value, Well 2 (Hela cell line; 25μM, second assay): 2.5525; OD490 value, Well 3 (Hela cell line; 25μM, second assay): 2.4369; OD490 value, Mean (Hela cell line; 25μM, third assay): 2.6373; OD490 value, Well 1 (Hela cell line; 25μM, third assay): 2.6859; OD490 value, Well 2 (Hela cell line; 25μM, third assay): 2.5363; OD490 value, Well 3 (Hela cell line; 25μM, third assay): 2.6896; OD490 value, Mean (Hela cell line; 50μM, first assay): 2.5183; OD490 value, Well 1 (Hela cell line; 50μM, first assay): 2.3673; OD490 value, Well 2 (Hela cell line; 50μM, first assay): 2.6584; OD490 value, Well 3 (Hela cell line; 50μM, first assay): 2.5291; OD490 value, Mean (Hela cell line; 50μM, second assay): 2.5474; OD490 value, Well 1 (Hela cell line; 50μM, second assay): 2.4652; OD490 value, Well 2 (Hela cell line; 50μM, second assay): 2.5569; OD490 value, Well 3 (Hela cell line; 50μM, second assay): 2.6201; OD490 value, Mean (Hela cell line; 50μM, third assay): 2.5184; OD490 value, Well 1 (Hela cell line; 50μM, third assay): 2.4365; OD490 value, Well 2 (Hela cell line; 50μM, third assay): 2.5532; OD490 value, Well 3 (Hela cell line; 50μM, third assay): 2.5654; OD490 value, Mean (Hela cell line; 100μM, first assay): 2.3367; OD490 value, Well 1 (Hela cell line; 100μM, first assay): 2.4110; OD490 value, Well 2 (Hela cell line; 100μM, first assay): 2.1799; OD490 value, Well 3 (Hela cell line; 100μM, first assay): 2.4192; OD490 value, Mean (Hela cell line; 100μM, second assay): 2.4086; OD490 value, Well 1 (Hela cell line; 100μM, second assay): 2.3674; OD490 value, Well 2 (Hela cell line; 100μM, second assay): 2.4214; OD490 value, Well 3 (Hela cell line; 100μM, second assay): 2.4369; OD490 value, Mean (Hela cell line; 100μM, third assay): 2.3047; OD490 value, Well 1 (Hela cell line; 100μM, third assay): 2.1753; OD490 value, Well 2 (Hela cell line; 100μM, third assay): 2.3324; OD490 value, Well 3 (Hela cell line; 100μM, third assay): 2.4065; IC50 (Hela cell line; MTS assay, 24 h exposure): > 150 µM; OD490 values, Mean (L929 cell line; 0.5μM, first assay): 1.1913; OD490 values, Well 1 (L929 cell line; 0.5μM, first assay): 1.1038; OD490 values, Well 2 (L929 cell line; 0.5μM, first assay): 1.2202; OD490 values, Well 3 (L929 cell line; 0.5μM, first assay): 1.2500; OD490 values, Mean (L929 cell line; 0.5μM, second assay): 1.4730; OD490 values, Well 1 (L929 cell line; 0.5μM, second assay): 1.5380; OD490 values, Well 2 (L929 cell line; 0.5μM, second assay): 1.4321; OD490 values, Well 3 (L929 cell line; 0.5μM, second assay): 1.4489; OD490 values, Mean (L929 cell line; 0.5μM, third assay): 1.5772; OD490 values, Well 1 (L929 cell line; 0.5μM, third assay): 1.5471; OD490 values, Well 2 (L929 cell line; 0.5μM, third assay): 1.5630; OD490 values, Well 3 (L929 cell line; 0.5μM, third assay): 1.6214; OD490 values, Mean (L929 cell line; 1μM, first assay): 1.1860; OD490 values, Well 1 (L929 cell line; 1μM, first assay): 1.2156; OD490 values, Well 2 (L929 cell line; 1μM, first assay): 1.2049; OD490 values, Well 3 (L929 cell line; 1μM, first assay): 1.1374; OD490 values, Mean (L929 cell line; 1μM, second assay): 1.4734; OD490 values, Well 1 (L929 cell line; 1μM, second assay): 1.5248; OD490 values, Well 2 (L929 cell line; 1μM, second assay): 1.4852; OD490 values, Well 3 (L929 cell line; 1μM, second assay): 1.4101; OD490 values, Mean (L929 cell line; 1μM, third assay): 1.5596; OD490 values, Well 1 (L929 cell line; 1μM, third assay): 1.5474; OD490 values, Well 2 (L929 cell line; 1μM, third assay): 1.5836; OD490 values, Well 3 (L929 cell line; 1μM, third assay): 1.5478; OD490 values, Mean (L929 cell line; 10μM, first assay): 1.1924; OD490 values, Well 1 (L929 cell line; 10μM, first assay): 1.2175; OD490 values, Well 2 (L929 cell line; 10μM, first assay): 1.1577; OD490 values, Well 3 (L929 cell line; 10μM, first assay): 1.2021; OD490 values, Mean (L929 cell line; 10μM, second assay): 1.4056; OD490 values, Well 1 (L929 cell line; 10μM, second assay): 1.3665; OD490 values, Well 2 (L929 cell line; 10μM, second assay): 1.4252; OD490 values, Well 3 (L929 cell line; 10μM, second assay): 1.4252; OD490 values, Mean (L929 cell line; 10μM, third assay): 1.6223; OD490 values, Well 1 (L929 cell line; 10μM, third assay): 1.6874; OD490 values, Well 2 (L929 cell line; 10μM, third assay): 1.5874; OD490 values, Well 3 (L929 cell line; 10μM, third assay): 1.5922; OD490 values, Mean (L929 cell line; 25μM, first assay): 1.1330; OD490 values, Well 1 (L929 cell line; 25μM, first assay): 1.1639; OD490 values, Well 2 (L929 cell line; 25μM, first assay): 1.1385; OD490 values, Well 3 (L929 cell line; 25μM, first assay): 1.0965; OD490 values, Mean (L929 cell line; 25μM, second assay): 1.3592; OD490 values, Well 1 (L929 cell line; 25μM, second assay): 1.4632; OD490 values, Well 2 (L929 cell line; 25μM, second assay): 1.2302; OD490 values, Well 3 (L929 cell line; 25μM, second assay): 1.3841; OD490 values, Mean (L929 cell line; 25μM, third assay): 1.5851; OD490 values, Well 1 (L929 cell line; 25μM, third assay): 1.5924; OD490 values, Well 2 (L929 cell line; 25μM, third assay): 1.5955; OD490 values, Well 3 (L929 cell line; 25μM, third assay): 1.5674; OD490 values, Mean (L929 cell line; 50μM, first assay): 1.0425; OD490 values, Well 1 (L929 cell line; 50μM, first assay): 1.0133; OD490 values, Well 2 (L929 cell line; 50μM, first assay): 1.0567; OD490 values, Well 3 (L929 cell line; 50μM, first assay): 1.0575; OD490 values, Mean (L929 cell line; 50μM, second assay): 1.2636; OD490 values, Well 1 (L929 cell line; 50μM, second assay): 1.2147; OD490 values, Well 2 (L929 cell line; 50μM, second assay): 1.2548; OD490 values, Well 3 (L929 cell line; 50μM, second assay): 1.3214; OD490 values, Mean (L929 cell line; 50μM, third assay): 1.3874; OD490 values, Well 1 (L929 cell line; 50μM, third assay): 1.3352; OD490 values, Well 2 (L929 cell line; 50μM, third assay): 1.3582; OD490 values, Well 3 (L929 cell line; 50μM, third assay): 1.4687; OD490 values, Mean (L929 cell line; 100μM, first assay): 0.9106; OD490 values, Well 1 (L929 cell line; 100μM, first assay): 0.8752; OD490 values, Well 2 (L929 cell line; 100μM, first assay): 0.9980; OD490 values, Well 3 (L929 cell line; 100μM, first assay): 0.8587; OD490 values, Mean (L929 cell line; 100μM, second assay): 1.0255; OD490 values, Well 1 (L929 cell line; 100μM, second assay): 0.9632; OD490 values, Well 2 (L929 cell line; 100μM, second assay): 1.0012; OD490 values, Well 3 (L929 cell line; 100μM, second assay): 1.1122; OD490 values, Mean (L929 cell line; 100μM, third assay): 1.3052; OD490 values, Well 1 (L929 cell line; 100μM, third assay): 1.3254; OD490 values, Well 2 (L929 cell line; 100μM, third assay): 1.2547; OD490 values, Well 3 (L929 cell line; 100μM, third assay): 1.3354; IC50 (L929 cell line; MTS assay, 24 h exposure, ordinary fibroblast, not cancer cells): 121 µM
